Results on eight compounds are retold here after ChEMBL document CHEMBL1201862, “PubChem BioAssay data set” (2004).

Activity calls are given as the source filed them.

Test [1] in a line: intracellular Trypanosoma cruzi inhibitors in host cells – cell-based, plate reader, cherry-pick samples, set 3, dose response (AID 651818).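 Further: compounds incubated with infected cells for about four days.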 In kind it is functional.
The nature of test [2]: T. b. rhodesiense proliferation inhibition, dose response, STIB900 strain, plate reader, cherry pick (AID 651893). To be noted: Trypanosoma brucei. The test is classed as functional, cell-based.
A short description of test [3]: L. donovani amastigote growth inhibition, dose response, axenic amastigotes, plate reader, cherry pick (AID 651891). Particulars: Leishmania donovani. In kind it is functional, cell-based.
Test [4] can be described thus: cytotoxicity in L-6 rat myocytes, dose response, cytotoxicity control, cell-based, plate reader, cherry-pick (AID 651896). In kind it is functional.
Test [5] in a line: Inhibition of T. cruzi Tulahuen strain amastigotes in L-6 muscle cells Measured in Cell-Based and Microorganism Combination System Using Plate Reader - 2138-03_Inhibitor_Dose_CherryPick_Activity. The test is classed as functional. To be noted: Rattus norvegicus, L6.
Test [6] in a line: Inhibition of Plasmodium falciparum NF54 Measured in Cell-Based System Using Plate Reader - 2138-11_Inhibitor_Dose_CherryPick_Activity. The test is classed as functional.
The target in test [7] is T1, Tyrosine-protein phosphatase non-receptor type 22 (Homo sapiens, UniProt Q9Y2R2).
T1 sequence (Q9Y2R2 whole entry): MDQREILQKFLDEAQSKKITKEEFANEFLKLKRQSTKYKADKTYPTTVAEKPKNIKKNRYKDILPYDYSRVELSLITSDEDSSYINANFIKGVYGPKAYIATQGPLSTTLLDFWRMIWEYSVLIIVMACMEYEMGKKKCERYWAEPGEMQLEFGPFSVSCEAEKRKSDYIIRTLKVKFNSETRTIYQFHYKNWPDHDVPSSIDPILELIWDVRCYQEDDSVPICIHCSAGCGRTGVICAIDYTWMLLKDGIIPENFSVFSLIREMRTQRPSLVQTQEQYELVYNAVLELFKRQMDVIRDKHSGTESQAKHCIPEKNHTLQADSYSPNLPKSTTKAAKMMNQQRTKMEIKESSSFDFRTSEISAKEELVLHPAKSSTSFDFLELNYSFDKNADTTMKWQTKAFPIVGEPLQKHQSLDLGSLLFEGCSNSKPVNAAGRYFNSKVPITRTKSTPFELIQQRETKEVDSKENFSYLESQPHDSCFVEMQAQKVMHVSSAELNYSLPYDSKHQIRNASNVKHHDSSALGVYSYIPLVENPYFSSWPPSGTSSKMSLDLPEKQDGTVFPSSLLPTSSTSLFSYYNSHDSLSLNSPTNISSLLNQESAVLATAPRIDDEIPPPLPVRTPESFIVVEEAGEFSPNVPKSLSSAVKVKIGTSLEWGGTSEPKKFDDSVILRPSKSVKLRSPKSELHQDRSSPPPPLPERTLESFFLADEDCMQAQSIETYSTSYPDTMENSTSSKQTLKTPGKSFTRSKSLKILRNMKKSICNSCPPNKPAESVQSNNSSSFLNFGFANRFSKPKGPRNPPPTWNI
The test can be described thus: LYP phosphatase inhibition for selectivity, dose response, selectivity assay for LMPTP inhibitor project, biochemical, fluorescence, LYP catalytic domain (AID 652006). In kind it is functional. Particulars: read-out: IC50_Mean.

Test [8] deals with Low molecular weight phosphotyrosine protein phosphatase (Homo sapiens, UniProt P24666). In kind it is functional. Particulars: read-out: IC50_Mean.
Test [9] can be described thus: HEK293T cell cytotoxicity, dose response, cytotoxicity control for HIV Vif inhibitor project, cherry-picks (AID 652208). The test is classed as functional, cell-based.
Test [10] concerns the target Paired box protein Pax-8 (Homo sapiens, UniProt Q06710). Kind of test: inhibitors of PAX8-driven TPO luciferase reporter, dose response, RMG-I cells, cherry-pick (AID 687027).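 Further: luciferase reporter driven by Pax8 target thyroperoxidase promoter measured by SteadyGlo luminescence.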 In kind it is functional, cell-based.
Test [11] can be described thus: control 3'UTR Renilla luciferase suppression, dose response, counter-screen for Shn3 inhibitor project, cell-based, Clone20-Shn3RL, cherry-picked (AID 624133). The test is classed as functional. For orientation: The purpose of a counterscreen is to sort out artefacts and off-target activity.
The nature of test [12]: Shn3 3'UTR reporter inhibitors, dose response, cell-based, Clone20 osteoblasts, firefly luciferase, cherry-picked (AID 624132).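 Further: firefly luciferase luminescence from reporter carrying the Shn3 3'UTR in osteoblasts.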 In kind it is functional.
Test [13] concerns the target Beta Lactamase (Pseudomonas aeruginosa, UniProt Q932Y6). The test can be described thus: beta-lactamase reporter inhibitor potency, dose response, artefact control for NOD2-RIPK2 interaction inhibitor project, BLA reporter cells, FRET fluorescence (AID 651552). The test is classed as functional, cell-based.
Test [14] is described as follows: Fluorescence-based cell-based high throughput dose response assay for inhibitors of the interaction of nucleotide-binding oligomerization domain containing 2 (NOD2) and the receptor-interacting serine-threonine kinase 2 (RIPK2). The test is classed as functional. To be noted: Homo sapiens.
The nature of test [15]: HepG2 cell cytotoxicity, dose response, cytotoxicity control for Shn3 inhibitor project, CellTiter-Glo, cherry-picked (AID 624134). In kind it is functional, cell-based. Background: Cellular ATP, detected with luciferase, serves as a proxy for viable cell number.
Test [16] concerns the target Nuclear receptor subfamily 5 group A member 2 (Homo sapiens, UniProt O00482). The test is classed as functional, cell-based.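 Further: HEK293T cells transfected with LRH-1 and a StAR promoter luciferase reporter; potency for inhibitors that lower LRH-1 driven reporter light.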
A short description of test [17]: StAR promoter reporter inhibition counter-screen, dose response, counter-screen for LRH-1 inverse agonist project, cell-based, luminescence, luciferase reporter (AID 651969). The test is classed as functional.
The target of test [18] is Steroidogenic factor 1 (Homo sapiens, UniProt Q13285). The test can be described thus: Counterscreen for inverse agonists of the liver receptor homolog-1 (LRH-1; NR5A2): Luminescence-based cell-based high throughput dose response assay to identify inverse agonists of the Steroidogenic Factor 1 Nuclear Receptor (SF1; NR5A1). The test is classed as functional.
Test [19] addresses Beta-lactamase (Pseudomonas aeruginosa, UniProt Q79MP6).
For test [20], the target named is Beta-lactamase (Salmonella choleraesuis (strain SC-B67), UniProt Q5J463).
In test [21] the target is DNA repair protein RAD52 homolog (Homo sapiens, UniProt P43351). In kind it is functional, biochemical.
Test [22] in a line: MDA-MB-231 cell growth inhibition, dose response, cytotoxicity control for RAD54 inhibitor project, CellTiter-Glo luminescence, cherry-pick (AID 651692). In kind it is functional, cell-based.
Test [23] deals with T2, DNA repair and recombination protein RAD54-like (Homo sapiens, UniProt Q92698).
T2 sequence (Q92698 whole entry): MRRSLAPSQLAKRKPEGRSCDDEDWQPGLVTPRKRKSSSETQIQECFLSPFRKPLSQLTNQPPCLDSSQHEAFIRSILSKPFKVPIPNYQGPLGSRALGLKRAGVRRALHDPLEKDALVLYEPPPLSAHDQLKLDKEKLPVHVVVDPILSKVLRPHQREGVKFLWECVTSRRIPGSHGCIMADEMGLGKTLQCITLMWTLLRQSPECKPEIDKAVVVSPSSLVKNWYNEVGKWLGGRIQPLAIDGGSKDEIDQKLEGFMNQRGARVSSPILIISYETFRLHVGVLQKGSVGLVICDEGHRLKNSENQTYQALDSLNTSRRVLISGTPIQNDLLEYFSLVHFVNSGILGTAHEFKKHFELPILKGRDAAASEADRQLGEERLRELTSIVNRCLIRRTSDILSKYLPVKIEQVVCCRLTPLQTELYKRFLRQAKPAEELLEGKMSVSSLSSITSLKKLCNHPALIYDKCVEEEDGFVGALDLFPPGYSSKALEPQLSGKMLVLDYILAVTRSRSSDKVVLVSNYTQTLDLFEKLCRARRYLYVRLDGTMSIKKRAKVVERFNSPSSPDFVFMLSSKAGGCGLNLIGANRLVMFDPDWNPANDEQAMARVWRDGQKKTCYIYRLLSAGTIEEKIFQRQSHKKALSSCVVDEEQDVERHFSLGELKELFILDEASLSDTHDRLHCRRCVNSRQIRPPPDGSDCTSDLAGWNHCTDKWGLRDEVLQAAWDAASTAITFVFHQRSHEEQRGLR
Kind of test: inhibitors of human RAD54 branch migration, confirmation, biochemical, fluorescence, cherry-picked samples, dose series (AID 651657). The test is classed as functional.

Test [24] can be described thus: CRF-BP/CRF-R2 complex antagonists, dose response, cell-based, uHTS hits, 384-well (AID 651639). Particulars: read-out: IC50_Mean. The test is classed as functional, Homo sapiens.
In test [25] the target is T3, Corticotropin-releasing factor receptor 2/Corticotropin-releasing factor-binding protein (Homo sapiens, UniProt P24387+Q13324).
T3 sequence (Q13324 whole entry): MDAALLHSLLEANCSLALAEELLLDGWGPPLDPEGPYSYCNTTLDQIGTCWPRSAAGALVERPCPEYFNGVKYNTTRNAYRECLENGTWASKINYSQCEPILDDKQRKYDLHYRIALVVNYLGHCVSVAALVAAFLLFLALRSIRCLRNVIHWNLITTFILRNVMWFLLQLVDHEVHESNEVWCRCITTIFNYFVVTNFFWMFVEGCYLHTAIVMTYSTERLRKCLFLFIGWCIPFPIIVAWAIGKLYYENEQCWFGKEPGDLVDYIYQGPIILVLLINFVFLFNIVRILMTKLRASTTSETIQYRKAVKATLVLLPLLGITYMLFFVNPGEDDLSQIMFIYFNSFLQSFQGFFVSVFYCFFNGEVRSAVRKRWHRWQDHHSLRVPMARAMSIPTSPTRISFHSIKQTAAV
T3 sequence (P24387 whole entry): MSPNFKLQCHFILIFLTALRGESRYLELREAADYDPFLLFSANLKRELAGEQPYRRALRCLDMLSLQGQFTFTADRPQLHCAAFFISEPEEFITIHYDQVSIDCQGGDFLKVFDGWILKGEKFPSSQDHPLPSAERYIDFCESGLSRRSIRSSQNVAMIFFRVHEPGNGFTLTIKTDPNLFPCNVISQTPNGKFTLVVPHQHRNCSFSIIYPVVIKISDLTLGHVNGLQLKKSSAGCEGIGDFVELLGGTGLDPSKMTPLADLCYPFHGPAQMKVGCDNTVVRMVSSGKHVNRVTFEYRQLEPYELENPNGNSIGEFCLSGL
Kind of test: activators of CRF receptor 2 with binding protein – uHTS hits, confirmation (AID 602473). The test is classed as functional. To be noted: read-out: EC50_Mean.

Test [26] deals with T3, Corticotropin-releasing factor receptor 2/Corticotropin-releasing factor-binding protein. The test can be described thus: Dose Response confirmation of uHTS hits for small molecule antagonists of the CRF-binding protein and CRF-R2 receptor complex. The test is classed as functional. To be noted: read-out: IC50_Mean.
Test [27] addresses T4, ATP-dependent translocase ABCB1 (Homo sapiens, UniProt P08183). Kind of test: ABCB1 efflux inhibitor potency, dose response, Jurkat-DNR cells, JC-1, flow cytometry, set 2 (AID 504569).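 Further: potency of pump inhibitors that raise cellular JC-1 green fluorescence up to the nicardipine level.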 Particulars: read-out: EC50_MICROM_. The test is classed as functional. For orientation: Flow cytometry measures light scatter and fluorescence of single cells or particles in a stream.
For test [28], the target named is T4, ATP-dependent translocase ABCB1. Kind of test: ABCG2 efflux pump inhibitor potency, dose response, Ig-MXP3 cells, JC-1, flow cytometry, set 2 (AID 504566).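 Further: flow cytometry median green fluorescence of retained JC-1 dye; potency of efflux pump inhibition measured as rising substrate retention.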 In kind it is functional. To be noted: read-out: EC50_MICROM_.

T4 sequence (P08183 whole entry): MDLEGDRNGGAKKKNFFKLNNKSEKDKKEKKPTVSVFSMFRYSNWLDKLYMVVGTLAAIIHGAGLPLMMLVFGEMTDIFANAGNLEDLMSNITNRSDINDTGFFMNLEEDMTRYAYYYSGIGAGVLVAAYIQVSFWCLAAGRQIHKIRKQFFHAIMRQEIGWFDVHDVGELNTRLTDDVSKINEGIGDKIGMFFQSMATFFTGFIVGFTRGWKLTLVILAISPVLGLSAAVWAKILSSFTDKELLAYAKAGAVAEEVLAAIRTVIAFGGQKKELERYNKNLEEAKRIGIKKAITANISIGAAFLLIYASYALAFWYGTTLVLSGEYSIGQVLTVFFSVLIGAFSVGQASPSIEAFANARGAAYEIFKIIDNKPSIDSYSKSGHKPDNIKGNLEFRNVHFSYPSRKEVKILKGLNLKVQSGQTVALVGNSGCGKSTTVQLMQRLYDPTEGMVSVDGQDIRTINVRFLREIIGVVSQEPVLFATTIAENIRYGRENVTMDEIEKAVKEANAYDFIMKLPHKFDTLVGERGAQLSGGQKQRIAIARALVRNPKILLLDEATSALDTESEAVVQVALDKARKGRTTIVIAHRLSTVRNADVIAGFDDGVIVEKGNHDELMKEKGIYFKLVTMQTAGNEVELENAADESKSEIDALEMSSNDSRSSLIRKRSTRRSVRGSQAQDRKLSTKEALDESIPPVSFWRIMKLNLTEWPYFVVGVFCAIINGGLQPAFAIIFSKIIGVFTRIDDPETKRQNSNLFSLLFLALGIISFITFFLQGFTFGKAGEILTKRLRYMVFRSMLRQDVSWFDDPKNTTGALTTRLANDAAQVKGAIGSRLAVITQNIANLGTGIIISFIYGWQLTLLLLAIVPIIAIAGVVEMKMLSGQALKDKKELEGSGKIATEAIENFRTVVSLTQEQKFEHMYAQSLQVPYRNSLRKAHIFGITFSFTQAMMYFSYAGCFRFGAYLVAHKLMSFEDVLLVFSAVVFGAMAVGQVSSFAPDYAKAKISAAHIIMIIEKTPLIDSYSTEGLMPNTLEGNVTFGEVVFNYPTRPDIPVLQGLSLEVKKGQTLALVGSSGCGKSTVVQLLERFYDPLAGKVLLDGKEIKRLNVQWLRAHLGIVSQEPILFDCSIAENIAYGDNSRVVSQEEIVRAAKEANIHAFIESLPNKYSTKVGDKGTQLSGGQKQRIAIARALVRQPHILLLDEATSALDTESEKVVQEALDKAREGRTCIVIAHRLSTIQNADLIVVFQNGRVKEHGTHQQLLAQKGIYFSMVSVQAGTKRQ
Sequence of Beta-lactamase (Pseudomonas aeruginosa, UniProt Q79MP6) (Q79MP6 whole entry): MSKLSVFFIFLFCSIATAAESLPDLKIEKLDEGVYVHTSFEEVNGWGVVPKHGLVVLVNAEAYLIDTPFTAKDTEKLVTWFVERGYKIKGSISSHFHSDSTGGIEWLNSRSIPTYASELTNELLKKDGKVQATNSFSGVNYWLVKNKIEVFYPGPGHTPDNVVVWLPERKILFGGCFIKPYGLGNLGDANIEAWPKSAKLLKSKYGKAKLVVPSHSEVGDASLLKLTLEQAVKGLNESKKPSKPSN
Sequence of Low molecular weight phosphotyrosine protein phosphatase (P24666 whole entry): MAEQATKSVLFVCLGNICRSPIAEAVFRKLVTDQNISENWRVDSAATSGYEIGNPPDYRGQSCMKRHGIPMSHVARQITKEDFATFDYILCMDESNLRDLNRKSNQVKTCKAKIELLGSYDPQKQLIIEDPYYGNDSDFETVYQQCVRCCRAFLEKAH
Sequence of DNA repair protein RAD52 homolog (P43351 whole entry): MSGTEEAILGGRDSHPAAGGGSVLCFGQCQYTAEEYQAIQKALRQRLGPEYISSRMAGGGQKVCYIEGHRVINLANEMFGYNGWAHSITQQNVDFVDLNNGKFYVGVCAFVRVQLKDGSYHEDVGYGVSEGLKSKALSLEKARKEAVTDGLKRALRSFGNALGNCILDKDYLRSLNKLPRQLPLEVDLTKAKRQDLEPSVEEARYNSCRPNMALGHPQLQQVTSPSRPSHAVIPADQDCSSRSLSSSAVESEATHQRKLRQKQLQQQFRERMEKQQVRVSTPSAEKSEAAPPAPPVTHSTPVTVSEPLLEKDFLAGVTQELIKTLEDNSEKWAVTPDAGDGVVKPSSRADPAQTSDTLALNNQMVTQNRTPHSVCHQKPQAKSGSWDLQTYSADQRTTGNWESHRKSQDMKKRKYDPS
Sequence of Steroidogenic factor 1 (Q13285 whole entry): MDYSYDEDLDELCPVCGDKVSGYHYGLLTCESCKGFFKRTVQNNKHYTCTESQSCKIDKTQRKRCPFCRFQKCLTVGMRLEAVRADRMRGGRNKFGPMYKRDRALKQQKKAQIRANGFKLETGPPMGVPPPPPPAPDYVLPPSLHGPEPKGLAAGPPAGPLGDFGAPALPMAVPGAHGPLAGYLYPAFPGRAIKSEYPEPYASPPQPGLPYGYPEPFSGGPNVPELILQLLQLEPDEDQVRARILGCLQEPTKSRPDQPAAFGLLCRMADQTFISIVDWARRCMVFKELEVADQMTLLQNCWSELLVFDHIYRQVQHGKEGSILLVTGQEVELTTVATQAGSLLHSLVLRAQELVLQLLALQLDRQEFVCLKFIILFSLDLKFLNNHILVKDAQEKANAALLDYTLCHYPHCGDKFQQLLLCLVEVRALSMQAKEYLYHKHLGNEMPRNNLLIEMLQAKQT
Sequence of Paired box protein Pax-8 (Q06710 whole entry): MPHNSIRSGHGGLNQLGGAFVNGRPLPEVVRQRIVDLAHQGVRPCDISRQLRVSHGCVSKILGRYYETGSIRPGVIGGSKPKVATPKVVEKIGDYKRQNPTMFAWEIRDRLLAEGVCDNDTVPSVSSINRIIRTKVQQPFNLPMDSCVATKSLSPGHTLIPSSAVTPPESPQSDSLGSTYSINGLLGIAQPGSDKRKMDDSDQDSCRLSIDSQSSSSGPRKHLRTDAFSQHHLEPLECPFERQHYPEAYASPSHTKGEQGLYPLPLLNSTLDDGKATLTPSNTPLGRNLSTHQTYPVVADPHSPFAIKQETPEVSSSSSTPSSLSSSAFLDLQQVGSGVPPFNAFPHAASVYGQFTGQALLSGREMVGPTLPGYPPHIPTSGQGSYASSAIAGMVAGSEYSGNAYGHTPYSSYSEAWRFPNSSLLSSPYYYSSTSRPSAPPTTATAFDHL
Sequence of Beta-lactamase (Salmonella choleraesuis (strain SC-B67), UniProt Q5J463) (Q5J463 whole entry): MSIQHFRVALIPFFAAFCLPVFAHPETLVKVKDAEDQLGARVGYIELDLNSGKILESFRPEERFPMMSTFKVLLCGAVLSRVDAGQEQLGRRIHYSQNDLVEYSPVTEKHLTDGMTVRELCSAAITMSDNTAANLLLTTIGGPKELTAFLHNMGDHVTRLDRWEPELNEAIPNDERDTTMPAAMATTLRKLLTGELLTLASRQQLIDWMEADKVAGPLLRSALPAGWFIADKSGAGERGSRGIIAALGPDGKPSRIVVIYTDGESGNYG
Sequence of Nuclear receptor subfamily 5 group A member 2 (O00482 whole entry): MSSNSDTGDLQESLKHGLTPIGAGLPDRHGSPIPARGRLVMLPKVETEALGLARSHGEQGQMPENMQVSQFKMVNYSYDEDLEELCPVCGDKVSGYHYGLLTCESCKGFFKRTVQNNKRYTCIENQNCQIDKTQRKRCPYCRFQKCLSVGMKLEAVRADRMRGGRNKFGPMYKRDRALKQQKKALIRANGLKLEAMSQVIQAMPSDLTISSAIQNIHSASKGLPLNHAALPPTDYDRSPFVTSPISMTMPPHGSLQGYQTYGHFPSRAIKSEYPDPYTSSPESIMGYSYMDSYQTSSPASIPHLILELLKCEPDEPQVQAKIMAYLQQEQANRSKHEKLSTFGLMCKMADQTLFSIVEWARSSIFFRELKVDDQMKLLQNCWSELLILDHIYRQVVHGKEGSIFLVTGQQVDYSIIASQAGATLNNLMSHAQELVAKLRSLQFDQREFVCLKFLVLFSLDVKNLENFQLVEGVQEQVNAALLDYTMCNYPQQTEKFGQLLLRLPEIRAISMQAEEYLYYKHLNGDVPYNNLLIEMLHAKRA
Sequence of Beta Lactamase (Q932Y6 whole entry, the tested form may be a part): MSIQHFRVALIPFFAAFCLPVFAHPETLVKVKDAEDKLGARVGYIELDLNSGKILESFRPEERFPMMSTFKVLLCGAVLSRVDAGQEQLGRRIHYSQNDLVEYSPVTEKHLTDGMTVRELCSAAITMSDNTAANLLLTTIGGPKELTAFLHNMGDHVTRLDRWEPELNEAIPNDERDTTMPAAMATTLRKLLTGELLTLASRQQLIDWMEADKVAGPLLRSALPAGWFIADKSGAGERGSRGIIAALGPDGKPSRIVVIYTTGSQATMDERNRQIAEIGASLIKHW

Consider `C[C@H](CO)N1C[C@H](C)[C@H](CN(C)Cc2ccccc2)Oc2c(NC(=O)c3ccncc3)cccc2C1=O`, for which, in test [1], the AC50 (in general, the midpoint of the concentration-response curve, whichever way the signal moves) was 0.208 µM (active). The IC50 is 75.4 µM (inactive) in [2]; > 100 µM (inactive) in test [3]; > 100 µM (inactive) in test [4]; 20.6 µM (inactive) in test [5]; 20.6 µM (inactive) in [6].

For `Cc1cc(N2CCN(S(=O)(=O)c3ccc(Cl)c(Cl)c3)CC2)c2ccccc2n1`, the IC50 in test [7] is 35.8 µM (inactive); in [8] it was 19.5 µM (active). In addition, the AC50 in test [9] is 50.5 µM (active).

With `CC1CC(C)CC(C)C(O)C(C#N)=CC=CCC(C2CCCC2C(=O)O)OC(=O)CC(O)C(C)C1` (stereo not drawn), the AC50 in test [10] is < 0.26 µM (active); in test [11], 1.08 µM (active); in [12], < 0.26 µM (active); in test [15], 10.2 µM (active). The IC50 in test [13] and in [14] was 49.8 µM (inactive) throughout.

With `CCCN(CC(=O)Nc1ccc(C(C)=O)cc1)CC(=O)Nc1ccccc1C`, the IC50 in test [16] is 12 µM (inactive); in test [17], 35.9 µM (inactive); in test [18] it was 0.941 µM (active).

Regarding `CC(C)(C)c1ccc(-c2c(C(=O)O)c(C(=O)O)c3n2CSC3)cc1`, the IC50 is 35.1 µM (inactive) in test [19] and > 59.6 µM (inactive) in [20].

In the case of `COc1cc2ccccc2cc1C(=O)N(CCN(C)C)c1nc2c(OC)ccc(OC)c2s1`, the AC50 is 7.36 µM (active) in [21], 18.1 µM (active) in [22] and 100 µM (inactive) in test [23].

Consider `CC(C)N(C(=O)[C@H]1C[C@H](CC(=O)NCCC2=CCCCC2)C(=O)N2CCc3c([nH]c4ccc(Cl)cc34)[C@]12C)C(C)C`, for which the IC50 in [24] was 4.28 µM (active); in test [26] it was 3.6 µM (active). In test [25], the EC50 is > 53 µM (inactive).

Turning to `O=C(Cc1ccccc1)N1CCN(c2cc(-c3ccccc3)nc3cc(-c4cccc(Cl)c4)nn23)CC1`, the EC50 is 3.62 µM (active) in [27] and 7.42 µM (active) in test [28].
